US20250339396A1 (COSMAS THERAPEUTICS DEVELOPMENT INC., priority 2021, published 2025)

Experiments:
[1] = Stability of Prodrug D in solvents by HPLC; assay type: physicochemical
Description: For this test, we used HPLC with different solvent systems. […] Therefore, after initial assessment, this method was used for the remaining tests. Prodrug D or UCM924 (comparator) were dissolved in the different solvents listed in the table below and, after the waiting period indicated, HPLC tests were carried out according to the above. The results are shown in the table below, in which the percentages represent the quantity of prodrug D or UCM924 detected in the samples.

Solubility of Prodrug D = assay type: physicochemical
Source text: The solubility and stability of Prodrug D as synthesized in Example 2 were studied.

mice (C57/BL) = assay: Elevated Plus Maze Test (EPMT); assay type: in vivo, mouse; parameters: key to closed arm time, difference between medians: Actual / closed arm time, difference between medians: Hodges-Lehmann: time in closed arms, in seconds (s); total distance, difference between medians: Actual / total distance, difference between medians: Hodges-Lehmann: unit not given here; conditions: 150 mg/kg oral gavage
Description: Prodrug D 150 mg/kg was dissolved in tap water per oral gavage. The solution was prepared <30 seconds before administration (100 μL administration volume).
Behavioral tests performed 2.5-3 hours after drug administration. 8 mice (C57/BL) per group were used received vehicle or Prodrug D.
The EPMT was used to assess anxiety-like reactivity as induced suppression of exploratory behavior. The maze was made of white Plexiglass and consisted of two open arms (16×5 cm) opposite each other and two walled arms (16×5×12 cm) opposite each other. […] The mice were each placed on the central platform facing one of the open arms. EPMT behavior was recorded for 5 min under bright white light (100 W). Behavioral endpoints that were analyzed included time spent in the open vs closed arms, frequency of open arm vs closed arm entries, time spent (s) on the central platform. Anxiolytic agents are known to increase open arm visits and time in the open arm. Anxiogenics increase closed arm visits.
The percentage of the time spent in the open arms was calculated employing the formula […] where OA represents the time (s) spent in open arms and CA is the time (s) spent in the closed arms. Behavioral experiments were recorded and analyzed using an automated tracking system (Video track, View Point Life Science, Montreal, Canada) equipped with infrared lighting-sensitive CCD cameras (Bambico F R et al., 2010).

neuropathic (SNI) rats = assay: Mechanical allodynia (von Frey, 50% paw withdrawal threshold) after spared nerve injury (SNI); assay type: in vivo, rat; conditions: 50 mg/kg per os
Description: Experiments were performed in male Sprague-Dawley rats (body weight: 250-300 g; Charles River Laboratories, St. Constant, QC, Canada) and adult male C57BL mice (body weight: 25-30 g; inbred). All animals were housed in small groups at a constant temperature of 22° C., with food and water provided ad libitum, and maintained under a 12 h light/dark cycle (lights on at 7:00 AM; lights off at 7:00 PM). All experimental procedures were conducted in accordance with the guidelines of the Canadian Council on Animal Care, and the protocols were approved by the Animal Care Committee at McGill University.
The different prodrug compounds as synthesized in Example 2 were tested and compared with Gabapentin (150 mg/kg, purchased from Sigma Aldrich, US). Prodrug was dissolved in saline, water, or a vehicle composed of 40% PEG400 and 60% water. Gabapentin was dissolved in a vehicle composed of 40% PEG400 and 60% water. All drugs (doses see the procedure descriptions below) were administrated per os (gavage) through a curved feeding tube (20 G for rats and 22 G for mice) at the beginning of the experiment unless otherwise specified. The dose of prodrug was chosen based on its pharmacokinetic properties, and the doses of Gabapentin were chosen from literature (Lopez-Canul, Palazzo et al. 2015).
Spared nerve injury was performed according to the method of (Decosterd I and Woolf CJ, 2000), see also Lopez-Canul et al., 2015. Rats and mice were anesthetized with isoflurane. The sciatic nerve was exposed at mid-thigh level distal to the trifurcation and freed of connective tissue; the three peripheral branches (sural, common peroneal, and tibial nerves) of the sciatic nerve were exposed without stretching nerve structures. Both tibial and common peroneal nerves were ligated and transected together. Tactile allodynia was absent in healthy (pre-surgery) and sham rats, and the mechanical withdrawal threshold in rats before SNI (pre-surgery) or sham was very close to the cutoff of dynamic plantar aesthesiometer (30 g) (Ugo Basile, Varese, Italy).
On day 14 after surgery, individual rats were placed in a test chamber (clear plastic wire mesh-bottomed cage) and allowed to acclimatize for 30 to 40 minutes. Von Frey filaments (Stoelting, Wood Dale, IL) were used to measure the 50% paw withdrawal threshold using the up-and-down method reported by {Chaplan, 1994 #399}. […] Lifting of the paw indicated a positive response and prompted the use of the […], whereas absence of paw withdrawal after 5 seconds indicated a negative response and prompted the next filament of increasing weight. This paradigm continued for 4 more measurements after the initial change of the behavioral response or until 5 consecutive negative or 4 consecutive positive responses. Based on observations on normal, unoperated, and sham-operated rats, the cutoff value of 15 g was selected as the upper limit for testing because stiffer hairs tended to raise the entire limb rather than to buckle, substantially changing the nature of the stimulus. The resulting scores were used to calculate the 50% response threshold using the formula proposed by Dixon. Allodynia was considered to be present when paw withdrawal thresholds were <4 g, and drugs raising this threshold were considered antiallodynic {Lopez-Canul, 2015}. Accordingly, all nerve ligated rats were verified to be allodynic, responding to a stimulus of <4 g. Rats without mechanical allodynia were excluded. After the determination of the basal response, allodynia was assessed at baseline, 0.5, 1, 1.5, 2, 2.5, 3, 4, 5, 6, 7, and 8 hours post-administration for each treatment described below. Groups of 5 to 6 rats per treatment were used, with each animal being used for 1 treatment only. […]

[2] = 2.5-3 hours after administration, 5 min EPMT

quantity detected in the sample by HPLC ([1]; HPLC Method 1, H2O, 0 h, pH ~7.0): 90.15%
quantity detected in the sample by HPLC ([1]; HPLC Method 2, 1N HCl, overnight at rt, pH ~0): 85.21%
quantity detected in the sample by HPLC ([1]; HPLC Method 2, 40% PEG400:60% H2O, overnight at rt, pH ~7.0): 58.17%
quantity detected in the sample by HPLC ([1]; HPLC Method 2, H2O, 0 h, pH ~7.0): 93.92%
quantity detected in the sample by HPLC ([1]; HPLC Method 2, H2O, overnight at rt, pH ~7.0): 18.28%
quantity detected in the sample by HPLC ([1]; HPLC Method 2, Saturated NaHCO3aq, 2 h at rt, pH ~8.5): 27.21%
stability at different PH ([1]; rank order): acidic>neutral>basic
solubility (Solubility of Prodrug D; aqueous with cosolvent or surfactant or cyclodextrin, in PEG400:water 40%:60% mixture): > 125 mg/mL
solubility (Solubility of Prodrug D; in water): > 150 mg/mL
Structure (SMILES): CC(=O)N(CCN(c1ccc(F)cc1)c1cccc(Br)c1)C(=O)OCOC(=O)CN.Cl [Prodrug D, ((acetyl(2-((3-bromophenyl)(4-fluorophenyl)amino)ethyl)carbamoyl)oxy)methyl 2-aminoacetate hydrochloride]
overall effect in the EPMT (mice (C57/BL)): antianxiety effects
closed arm time, median (mice (C57/BL); [2]): 222.8, n = 8
entries to open, median (mice (C57/BL); [2]): 11.00, n = 8
open arm time, median (mice (C57/BL); [2]): 56.30, n = 8
total distance, median (mice (C57/BL); [2]): 1521, n = 8
closed arm time, difference between medians: Actual (mice (C57/BL); VEH minus Prodrug D (column A)): 25.75
entries to open, difference between medians: Actual (mice (C57/BL); VEH minus Prodrug D (column A)): −2
open arm time, difference between medians: Actual (mice (C57/BL); VEH minus Prodrug D (column A)): −30.85
total distance, difference between medians: Actual (mice (C57/BL); VEH minus Prodrug D (column A)): −2.35
closed arm time, difference between medians: Hodges-Lehmann (mice (C57/BL); VEH vs. Prodrug D): 29.45
entries to open, difference between medians: Hodges-Lehmann (mice (C57/BL); VEH vs. Prodrug D): −2.5
open arm time, difference between medians: Hodges-Lehmann (mice (C57/BL); VEH vs. Prodrug D): −25.9
total distance, difference between medians: Hodges-Lehmann (mice (C57/BL); VEH vs. Prodrug D): −116.6
AUC of withdrawal threshold vs. UCM924, t-test p (neuropathic (SNI) rats): 0.015
Area Under the Curve (AUC) of withdrawal threshold vs. vehicle, Bonferroni p (FIG. 1B) (neuropathic (SNI) rats): < 0.0001
withdrawal threshold over time vs. vehicle (two-way ANOVA, FIG. 1A) (neuropathic (SNI) rats; 0.5-8 h): significantly increased the withdrawal threshold
withdrawal threshold vs. vehicle, Bonferroni post-hoc p (neuropathic (SNI) rats; after 3, 4, 5 and 6 hours): < 0.0001
withdrawal threshold vs. vehicle, Bonferroni post-hoc p (neuropathic (SNI) rats; after 1 hour): 0.05
withdrawal threshold vs. precursor UCM924, Bonferroni post-hoc p (neuropathic (SNI) rats; hour 5): < 0.001
withdrawal threshold vs. precursor UCM924, Bonferroni post-hoc p (neuropathic (SNI) rats; hour 6): < 0.0001
